One may read the inhibition as how much of the control response was suppressed. A high value points to a response far below the control. One may read the IC50 as the midpoint of a concentration-inhibition curve. A low value points to inhibition by little substance.

The target in assay [1] is T1, Tissue alpha-L-fucosidase (Bos taurus) (UniProt Q2KIM0).
T1 sequence (whole entry): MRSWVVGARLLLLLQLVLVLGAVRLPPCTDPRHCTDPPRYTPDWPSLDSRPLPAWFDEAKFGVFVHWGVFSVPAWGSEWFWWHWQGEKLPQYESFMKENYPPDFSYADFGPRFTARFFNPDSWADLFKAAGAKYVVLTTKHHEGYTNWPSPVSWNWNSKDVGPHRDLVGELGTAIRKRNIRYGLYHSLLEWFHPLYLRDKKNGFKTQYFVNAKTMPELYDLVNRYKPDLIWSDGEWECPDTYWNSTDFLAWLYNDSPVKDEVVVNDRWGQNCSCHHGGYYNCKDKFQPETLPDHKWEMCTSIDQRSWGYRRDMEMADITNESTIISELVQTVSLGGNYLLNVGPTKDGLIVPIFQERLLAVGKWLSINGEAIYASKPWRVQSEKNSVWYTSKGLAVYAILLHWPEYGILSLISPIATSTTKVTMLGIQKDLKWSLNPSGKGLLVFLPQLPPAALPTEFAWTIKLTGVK
As to conditions: 1000 uM.

The target in assay [2] is Sucrase-isomaltase, intestinal (Rattus norvegicus) (UniProt P23739). As to conditions: 1000 uM.
Assay [3] can be described thus: Inhibitory concentration against alpha-galactosidase of coffee bean. On the set-up: species or system Coffea arabica.
For assay [4], the target named is T2, Beta-mannosidase (Homo sapiens) (UniProt O00462).
T2 sequence (whole entry): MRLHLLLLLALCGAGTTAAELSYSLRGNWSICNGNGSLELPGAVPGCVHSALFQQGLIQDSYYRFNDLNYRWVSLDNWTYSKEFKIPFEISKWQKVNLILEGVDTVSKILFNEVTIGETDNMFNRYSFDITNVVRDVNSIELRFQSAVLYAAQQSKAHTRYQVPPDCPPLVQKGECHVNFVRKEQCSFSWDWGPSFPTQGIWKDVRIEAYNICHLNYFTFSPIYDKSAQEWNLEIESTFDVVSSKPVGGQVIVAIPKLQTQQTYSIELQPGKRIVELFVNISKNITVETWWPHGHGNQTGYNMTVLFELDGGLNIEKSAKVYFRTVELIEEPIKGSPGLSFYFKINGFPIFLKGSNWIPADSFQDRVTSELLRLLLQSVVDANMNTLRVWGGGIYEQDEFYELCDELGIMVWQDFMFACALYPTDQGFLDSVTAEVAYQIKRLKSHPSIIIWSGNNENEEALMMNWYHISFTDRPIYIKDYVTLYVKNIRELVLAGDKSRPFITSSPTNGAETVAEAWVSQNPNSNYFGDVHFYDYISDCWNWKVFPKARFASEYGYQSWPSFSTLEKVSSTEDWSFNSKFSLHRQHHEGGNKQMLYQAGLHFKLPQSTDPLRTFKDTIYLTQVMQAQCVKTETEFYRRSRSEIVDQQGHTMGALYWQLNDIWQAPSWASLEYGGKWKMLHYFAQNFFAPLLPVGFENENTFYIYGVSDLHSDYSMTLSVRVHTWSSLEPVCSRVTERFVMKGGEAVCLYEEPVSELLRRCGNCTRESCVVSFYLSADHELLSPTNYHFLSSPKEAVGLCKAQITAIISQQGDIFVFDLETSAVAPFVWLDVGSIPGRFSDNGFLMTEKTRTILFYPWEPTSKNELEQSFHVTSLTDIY
Kind of assay: Percent inhibition of human beta-mannosidase at 1000 uM.

Assay [5] concerns the target T3, Beta-mannosidase (Rattus norvegicus) (UniProt Q4FZV0).
T3 sequence (whole entry): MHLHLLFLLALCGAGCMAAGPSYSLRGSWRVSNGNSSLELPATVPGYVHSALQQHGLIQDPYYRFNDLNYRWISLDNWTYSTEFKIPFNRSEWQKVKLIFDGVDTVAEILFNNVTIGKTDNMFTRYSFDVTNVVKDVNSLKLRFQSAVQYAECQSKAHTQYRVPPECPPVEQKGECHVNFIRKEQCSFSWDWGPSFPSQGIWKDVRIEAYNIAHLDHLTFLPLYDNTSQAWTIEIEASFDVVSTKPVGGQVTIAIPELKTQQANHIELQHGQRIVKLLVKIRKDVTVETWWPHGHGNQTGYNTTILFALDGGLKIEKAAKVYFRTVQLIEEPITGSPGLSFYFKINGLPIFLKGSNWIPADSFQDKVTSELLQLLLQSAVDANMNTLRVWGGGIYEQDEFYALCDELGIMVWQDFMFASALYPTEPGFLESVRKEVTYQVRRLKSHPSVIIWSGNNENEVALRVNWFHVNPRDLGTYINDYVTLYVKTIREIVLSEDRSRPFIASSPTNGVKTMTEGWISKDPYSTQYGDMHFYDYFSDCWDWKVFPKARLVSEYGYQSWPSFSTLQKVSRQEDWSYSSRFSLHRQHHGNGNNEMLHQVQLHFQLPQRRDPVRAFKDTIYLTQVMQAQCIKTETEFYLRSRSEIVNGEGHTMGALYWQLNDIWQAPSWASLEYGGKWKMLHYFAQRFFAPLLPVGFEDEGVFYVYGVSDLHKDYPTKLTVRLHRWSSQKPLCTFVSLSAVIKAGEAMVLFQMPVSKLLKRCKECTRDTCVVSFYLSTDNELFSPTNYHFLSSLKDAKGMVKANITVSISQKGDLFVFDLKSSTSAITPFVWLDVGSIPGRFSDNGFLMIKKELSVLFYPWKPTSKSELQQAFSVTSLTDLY
Description: Percent inhibition of beta-mannosidase of rat epididymis at 1000 uM.

Assay [6] has as its target T4, Beta-galactosidase (Rattus norvegicus) (UniProt D3ZUM4).
T4 sequence (whole entry): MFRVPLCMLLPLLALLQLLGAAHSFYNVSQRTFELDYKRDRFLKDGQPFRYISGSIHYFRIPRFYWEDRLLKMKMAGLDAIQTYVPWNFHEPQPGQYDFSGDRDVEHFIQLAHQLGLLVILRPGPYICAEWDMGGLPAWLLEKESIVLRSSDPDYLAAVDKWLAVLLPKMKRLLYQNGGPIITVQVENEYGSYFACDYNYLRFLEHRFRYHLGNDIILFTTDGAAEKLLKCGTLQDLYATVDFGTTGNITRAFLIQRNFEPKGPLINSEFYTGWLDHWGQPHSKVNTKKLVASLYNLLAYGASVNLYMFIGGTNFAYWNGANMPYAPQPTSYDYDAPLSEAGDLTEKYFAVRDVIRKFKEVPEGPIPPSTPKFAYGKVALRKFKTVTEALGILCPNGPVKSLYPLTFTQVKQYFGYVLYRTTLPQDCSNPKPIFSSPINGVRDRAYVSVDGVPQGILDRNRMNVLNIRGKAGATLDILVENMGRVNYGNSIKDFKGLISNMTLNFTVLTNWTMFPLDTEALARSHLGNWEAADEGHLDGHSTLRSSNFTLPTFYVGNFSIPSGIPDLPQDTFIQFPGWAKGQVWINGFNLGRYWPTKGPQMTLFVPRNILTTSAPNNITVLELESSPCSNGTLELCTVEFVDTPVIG
Kind of assay: Percent inhibition of beta-galactosidase of rat epididymis at 1000 uM.

Chain of Sucrase-isomaltase, intestinal (Rattus norvegicus) (P23739 1-1013 limits assumed): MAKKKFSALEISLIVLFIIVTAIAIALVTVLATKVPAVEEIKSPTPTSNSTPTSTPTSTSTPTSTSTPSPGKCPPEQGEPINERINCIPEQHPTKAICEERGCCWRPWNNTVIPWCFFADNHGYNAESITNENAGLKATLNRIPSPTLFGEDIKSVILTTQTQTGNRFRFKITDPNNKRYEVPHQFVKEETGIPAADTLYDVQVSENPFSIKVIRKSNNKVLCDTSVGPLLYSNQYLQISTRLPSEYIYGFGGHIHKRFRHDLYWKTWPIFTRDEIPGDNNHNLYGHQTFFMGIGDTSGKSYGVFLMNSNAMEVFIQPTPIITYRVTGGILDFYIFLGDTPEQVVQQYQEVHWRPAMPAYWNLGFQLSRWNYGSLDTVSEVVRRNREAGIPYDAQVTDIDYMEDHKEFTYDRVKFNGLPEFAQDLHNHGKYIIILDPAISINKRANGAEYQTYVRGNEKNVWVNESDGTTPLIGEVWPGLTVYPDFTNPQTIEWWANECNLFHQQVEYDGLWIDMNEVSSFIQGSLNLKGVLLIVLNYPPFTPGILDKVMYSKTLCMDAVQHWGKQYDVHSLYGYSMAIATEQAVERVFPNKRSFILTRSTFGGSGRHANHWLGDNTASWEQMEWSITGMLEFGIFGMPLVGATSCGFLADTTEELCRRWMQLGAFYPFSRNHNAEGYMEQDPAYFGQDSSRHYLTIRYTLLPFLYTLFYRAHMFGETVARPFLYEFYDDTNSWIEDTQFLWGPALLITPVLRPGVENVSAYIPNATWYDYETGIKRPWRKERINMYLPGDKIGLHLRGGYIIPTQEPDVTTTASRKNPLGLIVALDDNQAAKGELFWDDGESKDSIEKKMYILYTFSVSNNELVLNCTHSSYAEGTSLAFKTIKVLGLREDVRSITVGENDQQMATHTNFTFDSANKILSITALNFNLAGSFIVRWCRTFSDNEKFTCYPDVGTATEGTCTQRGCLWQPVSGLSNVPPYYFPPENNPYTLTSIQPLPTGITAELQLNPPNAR
Chain of Sucrase-isomaltase, intestinal (Rattus norvegicus) (P23739 1014-1841 limits assumed): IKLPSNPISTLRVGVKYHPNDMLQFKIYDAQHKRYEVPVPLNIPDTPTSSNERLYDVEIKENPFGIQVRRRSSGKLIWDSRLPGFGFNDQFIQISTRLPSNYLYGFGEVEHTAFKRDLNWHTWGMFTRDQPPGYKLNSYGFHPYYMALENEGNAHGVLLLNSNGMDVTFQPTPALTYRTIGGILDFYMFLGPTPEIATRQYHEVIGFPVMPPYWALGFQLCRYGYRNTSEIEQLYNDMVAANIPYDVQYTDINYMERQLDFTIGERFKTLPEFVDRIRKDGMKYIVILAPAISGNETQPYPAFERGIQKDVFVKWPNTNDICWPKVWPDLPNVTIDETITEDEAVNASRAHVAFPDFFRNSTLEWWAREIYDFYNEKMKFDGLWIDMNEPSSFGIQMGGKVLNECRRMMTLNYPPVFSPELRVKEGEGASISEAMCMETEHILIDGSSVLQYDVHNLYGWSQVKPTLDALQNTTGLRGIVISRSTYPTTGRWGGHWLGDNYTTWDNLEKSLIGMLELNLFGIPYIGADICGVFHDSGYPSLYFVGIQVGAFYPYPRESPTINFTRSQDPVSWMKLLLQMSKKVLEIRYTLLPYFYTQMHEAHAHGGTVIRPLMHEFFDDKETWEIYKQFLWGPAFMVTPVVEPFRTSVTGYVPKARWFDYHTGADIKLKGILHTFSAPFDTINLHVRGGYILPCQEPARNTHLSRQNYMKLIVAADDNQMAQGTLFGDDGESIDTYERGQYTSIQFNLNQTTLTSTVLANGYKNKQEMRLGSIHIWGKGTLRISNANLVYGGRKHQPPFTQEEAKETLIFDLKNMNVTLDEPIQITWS

Take `OC[C@H]1NC[C@@H](O)[C@H](O)[C@H]1O`: the inhibition in assay [1], in assay [2], in assay [4], in assay [5] and in assay [6] was less than 50% throughout. The compound further returned an IC50 in assay [3] of 67 µM.

As for `OC[C@H]1NC[C@H](O)[C@@H](O)[C@@H]1O` [DUVOGLUSTAT], the IC50 in assay [3] was found to be 880 µM. For the same compound, the inhibition in assay [4] is less than 50%.

Turning to `OC[C@@H]1NC[C@@H](O)[C@@H](O)[C@@H]1O`, the inhibition in assay [2], in assay [4], in assay [5] and in assay [6] was less than 50% each time.

Consider `OC[C@H]1NC[C@H](O)[C@H](O)[C@H]1O`, for which the inhibition in assay [1], in assay [2], in assay [4], in assay [5] and in assay [6] was less than 50% in each case. This compound returned a half-maximal inhibitory concentration (IC50) in assay [3] of 160 µM.

Regarding `OC[C@H]1NC[C@H](O)[C@@H](O)[C@H]1O`, the inhibition in assay [1], in assay [2], in assay [4] and in assay [5] was less than 50% throughout. In assay [3], the midpoint of inhibition, the IC50, lay at 0.003 µM.

As for `OC[C@@H]1NC[C@@H](O)[C@@H](O)[C@H]1O`, the inhibition in assay [1], in assay [2], in assay [4], in assay [5] and in assay [6] was less than 50% each time. In assay [3], the midpoint of inhibition, the IC50, lay at 290 µM.

With `OC[C@@H]1NC[C@H](O)[C@@H](O)[C@@H]1O`, the inhibition in assay [1], in assay [2], in assay [4], in assay [5] and in assay [6] was less than 50% each time.

`OC[C@@H]1NC[C@@H](O)[C@H](O)[C@@H]1O`: the inhibition in assay [2], in assay [4] and in assay [5] was less than 50% throughout. Besides, in assay [3], it took 13 µM to reach half-maximal inhibition (IC50).

For `OC[C@H]1NC[C@H](O)[C@H](O)[C@@H]1O`, the inhibition in assay [1], in assay [2], in assay [4], in assay [5] and in assay [6] was less than 50% each time. The same compound displayed an IC50 in assay [3] of 260 µM.

In the case of `OC[C@@H]1NC[C@@H](O)[C@H](O)[C@H]1O`, the inhibition in assay [1], in assay [4] and in assay [5] was less than 50% each time.

For `OC[C@H]1NC[C@@H](O)[C@@H](O)[C@@H]1O` [DEOXYMANNOJIRIMYCIN], the inhibition in assay [4], in assay [5] and in assay [6] was less than 50% in each case.

Regarding `OC[C@@H]1NC[C@H](O)[C@H](O)[C@H]1O`, the inhibition in assay [1], in assay [2], in assay [4], in assay [5] and in assay [6] was less than 50% in each case.

For the origin of these results see ChEMBL document CHEMBL1142734, “Biological properties of D- and L-1-deoxyazasugars” (J Med Chem, 2005).
